The structures appear in SMILES notation. Some results are limits rather than exact numbers.

These results are taken from ChEMBL document CHEMBL4265967, “Design, synthesis, and evaluation of carboxyl-modified oseltamivir derivatives with improved lipophilicity as neuraminidase inhibitors” (Bioorg Med Chem Lett, 2018).

The target in data set [1] is Neuraminidase (Influenza A virus) (UniProt B4URF0). To be noted: A/Anhui/2005(H5N1), at 1 µM.
Data set [2] has the same target. The settings on record: A/Anhui/2005(H5N1), at 10 µM.
A short description of data set [3]: in vitro. To be noted: human, liver microsomes.
A short description of data set [4]: in vitro. To be noted: human, liver microsomes. This is another data set of the same source. In general terms: Liver microsomes are vesicles of endoplasmic reticulum, rich in cytochrome P450 enzymes.
The nature of data set [5]: in vitro. To be noted: human, liver microsomes. This is another data set of the same source.
Data set [6] in a line: in vitro. To be noted: human, liver microsomes. This is another data set of the same source.
Data set [7] is described as follows: in vitro. The settings on record: human, liver microsomes. This is another data set of the same source.
Data set [8] in a line: in vitro. The settings on record: human, liver microsomes. This is another data set of the same source.
For a further data set, the target named is Neuraminidase (Influenza A virus, UniProt B4URF0). Also noted: species or system A/Anhui/2005(H5N1).
Sequence of Neuraminidase (B4URF0 whole entry): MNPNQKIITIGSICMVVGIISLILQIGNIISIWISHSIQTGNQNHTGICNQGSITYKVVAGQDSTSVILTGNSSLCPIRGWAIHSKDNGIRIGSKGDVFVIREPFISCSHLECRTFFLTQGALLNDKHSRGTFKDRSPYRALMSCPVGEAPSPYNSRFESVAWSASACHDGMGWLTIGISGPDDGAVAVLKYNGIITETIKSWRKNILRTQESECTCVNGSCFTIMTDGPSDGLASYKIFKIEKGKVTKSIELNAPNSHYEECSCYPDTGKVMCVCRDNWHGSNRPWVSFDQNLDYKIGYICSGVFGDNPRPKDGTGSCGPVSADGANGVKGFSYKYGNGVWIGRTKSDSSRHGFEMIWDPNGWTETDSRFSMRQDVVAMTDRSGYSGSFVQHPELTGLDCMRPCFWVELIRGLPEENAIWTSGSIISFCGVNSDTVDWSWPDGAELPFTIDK
Data set [9] in a line: in vitro. To be noted: human, liver microsomes. The source holds these as a separate data set.
A short description of data set [10]: in vitro. The settings on record: human, liver microsomes. This is another data set of the same source.
A short description of data set [11]: Octanol-phosphate buffered saline partition coefficient, log D of compound at pH 7.6 at 1 mg after 24 hrs by HPLC analysis. Format: physicochemical.
The nature of data set [12]: Octanol-phosphate buffered saline partition coefficient, log D of compound at pH 7.4 at 1 mg after 24 hrs by HPLC analysis. Format: physicochemical.
The nature of data set [13]: Octanol-phosphate buffered saline partition coefficient, log D of compound at pH 6.8 at 1 mg after 24 hrs by HPLC analysis. Format: physicochemical.
Data set [14] is described as follows: Octanol-phosphate buffered saline partition coefficient, log D of compound at pH 7 at 1 mg after 24 hrs by HPLC analysis. It is filed as physicochemical.

Sequence of Neuraminidase (Influenza A virus) (B4URF0 as listed by the source): as the sequence (B4URF0 whole entry) above

For orientation: inhibition means the drop in the measured response relative to a control, in per cent. Read a low inhibition as a response near the control. With `CCC(CC)O[C@@H]1C=C(C(=O)NCCCCc2ccccc2)C[C@H](N)[C@H]1NC(C)=O`, the inhibition in data set [1] came to 24.7%; in data set [2], 29.6%.

With `CCC(CC)O[C@@H]1C=C(C(=O)N[C@H](Cc2ccccc2)C(=O)OC)C[C@H](N)[C@H]1NC(C)=O`, the inhibition is 24.9% in data set [1] and 63.2% in data set [2].

Take `C[C@]12CC[C@H]3[C@@H](CCC4=CC(=O)CC[C@@]43C)[C@@H]1CC[C@@H]2O` [TESTOSTERONE]: in “in vitro [3]”, the fraction remaining at 0.5 h, 1 µM is 21.5%. Further, the amount remaining at 1 h, 1 µM is 5.2% in “in vitro [4]” and 99.3% in “in vitro [6]”. In addition, the amount remaining at 5 min, 1 µM in “in vitro [5]” was 64.8%. The fraction remaining at 10 min, 1 µM in “in vitro [7]” came to 58.9%. In addition, the amount remaining at 20 min, 1 µM in the data set “in vitro [8]” is 37.8%.

In data set [2], `CCC(CC)O[C@@H]1C=C(C(=O)NCc2ccc(Cl)c(Cl)c2)C[C@H](N)[C@H]1NC(C)=O` registered an inhibition of 21.4%.

The IC50 is the midpoint of a concentration-inhibition curve. A higher IC50 goes with weaker potency in that assay. On to `CCC(CC)O[C@@H]1C=C(C(=O)N[C@H](C)C(=O)O)C[C@H](N)[C@H]1NC(C)=O`, for which the IC50 against Neuraminidase turned out to be 24.4 µM. The values for the inhibition in data set [1] and in [2] were 27.8% and 81.1%, respectively.

Consider `CCC(CC)O[C@@H]1C=C(C(=O)N[C@H](CC(C)C)C(=O)OC)C[C@H](N)[C@H]1NC(C)=O`, for which the inhibition came out at 13.1% in [1] and 41.7% in data set [2].

For `CCCC[C@@H](NC(=O)C1=C[C@@H](OC(CC)CC)[C@H](NC(C)=O)[C@@H](N)C1)C(=O)O`, the half-inhibitory concentration (IC50) at Neuraminidase was 30.7 µM. This compound registered an inhibition in data set [2] of 85.5%.

As for `CCC(CC)O[C@@H]1C=C(C(=O)NCCCc2ccccc2)C[C@H](N)[C@H]1NC(C)=O`, the results for the inhibition in [1] and in data set [2] were 13.5% and 19.3%, respectively.

On Neuraminidase, `CCC(CC)O[C@@H]1C=C(C(=O)N[C@H](CC(C)C)C(=O)O)C[C@H](N)[C@H]1NC(C)=O` gave an IC50 of 6.55 µM. For the same compound, the figures for the inhibition in data set [1] and in [2] were 38.9% and 84.4%, respectively.

Regarding `CCC(C)C[C@@H](NC(=O)C1=C[C@@H](OC(CC)CC)[C@H](NC(C)=O)[C@@H](N)C1)C(=O)OC` (some centres not stated), the inhibition in data set [1] amounted to 23.6%; in [2], 50.5%.

`CCC(CC)O[C@@H]1C=C(C(=O)N[C@@H](C(=O)O)c2ccccc2)C[C@H](N)[C@H]1NC(C)=O` yielded an inhibition in data set [2] of 8.3%.

One may read the half-life as the time in which the quantity being followed falls by half. Low readings indicate fast loss, high ones slow loss. As usually defined, the CLint scaled is a measure of how fast metabolising enzymes remove a compound, apart from limits set by blood flow. A higher CLint scaled goes with rapid turnover. What is called microsomal CLint is a measure of how fast metabolising enzymes remove a compound, apart from limits set by blood flow. `O=C(O)Cc1ccccc1Nc1c(Cl)cccc1Cl` [DICLOFENAC] displayed a half-life at 1 µM in “in vitro [9]” of 11.6 min. Further, in the data set “in vitro [10]”, the CLint scaled at 1 µM was 108 mL/min/kg and the intrinsic clearance (microsomal CLint) at 1 µM was 120 µL/min/mg.

As to `CCC(CC)O[C@@H]1C=C(C(=O)N[C@H](Cc2ccccc2)C(=O)O)C[C@H](N)[C@H]1NC(C)=O`, at Neuraminidase, the 50% inhibitory concentration (IC50) is 21.9 µM. The inhibition amounted to 21.1% in data set [1] and 80.4% in data set [2].

At Neuraminidase, `CCC(CC)O[C@@H]1C=C(C(=O)N[C@@H](C(=O)O)C2CC2)C[C@H](N)[C@H]1NC(C)=O` displayed an IC50 of 46.4 µM. In addition, the inhibition in data set [2] is 85.7%.

Consider `CCC(CC)O[C@@H]1C=C(C(=O)NC2CC2)C[C@H](N)[C@H]1NC(C)=O`, for which the inhibition in [1] came to 5%; in [2], 55.3%.

On to `CCC(CC)O[C@@H]1C=C(C(=O)N[C@@H](CC(=O)OC)c2ccccc2)C[C@H](N)[C@H]1NC(C)=O`, for which the values for the inhibition in data set [1] and in data set [2] were 26.5% and 56.7%, respectively.

For orientation: logD means the decadic logarithm of the distribution of all forms, ionised or not, between an organic phase and buffer at a given pH. Low readings indicate a more hydrophilic compound, high ones a more lipophilic compound. As for `CCC(CC)O[C@@H]1C=C(C(=O)N[C@@H](C(=O)O)C(C)(C)C)C[C@H](N)[C@H]1NC(C)=O`, the log distribution coefficient (logD) at 24 h in data set [11] is -0.209; in data set [12], -0.116; in [13], -0.0458; in [14], -0.167. The amount remaining at 0.5 h, 1 µM in “in vitro [3]” turned out to be 95.5%. Moreover, the amount remaining at 1 h, 1 µM in the data set “in vitro [4]” was determined as 84.1%; in “in vitro [6]” it was 92.9%. The amount remaining at 5 min, 1 µM in “in vitro [5]” came out at 111%. The compound also returned a 50% inhibitory concentration (IC50) against Neuraminidase of 1.3 µM. Also, the amount remaining at 10 min, 1 µM in “in vitro [7]” came out at 87.3%. Further, the share remaining at 20 min, 1 µM in “in vitro [8]” worked out at 106%. Besides, the half-life at 1 µM in the data set “in vitro [9]” was more than 145 min. The results for the inhibition in data set [1] and in data set [2] were 58.3% and 91%, respectively. The same compound registered a CLint scaled at 1 µM in the data set “in vitro [10]” of less than 8.6 mL/min/kg. Also, in the data set “in vitro [10]”, the microsomal CLint at 1 µM is less than 9.6 µL/min/mg.

`CCC(CC)O[C@@H]1C=C(C(=O)N[C@@H](C(=O)O)C(C)C)C[C@H](N)[C@H]1NC(C)=O`: the half-inhibitory concentration (IC50) on Neuraminidase amounted to 4.18 µM. In addition, the inhibition in data set [1] amounted to 57.6%; in [2] it was 91.4%.
